Data published in US20100144700A1, “HETEROCYCLIC-CARBONYL-DIAZABICYCLOALKANES AS MODULATORS OF THE NEURONAL NICOTINIC ACETYLCHOLINE ALPHA 4 BETA 2, SUBTYPE RECEPTOR FOR THE TREATMENT OF CNS RELATED DISORDERS” (TARGACEPT, INC., priority 2007, published 2010).
pKi: −log10 of the molar value. Read-outs that look alike come from different tables or passages of the source.

Legend:
[1] = biological target: T1, α4β2 nAChR Subtype (Rattus norvegicus, UniProt P09483+P12390); experiment: Radioligand binding ([3H]nicotine) at rat α4β2 nAChR subtype, rat cerebral cortex membranes
T1 construct: The cerebral cortex was removed and placed in 20 volumes (weight:volume) of ice-cold preparative buffer; from tissue; host or cells: rat cerebral cortex membranes
T1 sequence (P09483 31-630): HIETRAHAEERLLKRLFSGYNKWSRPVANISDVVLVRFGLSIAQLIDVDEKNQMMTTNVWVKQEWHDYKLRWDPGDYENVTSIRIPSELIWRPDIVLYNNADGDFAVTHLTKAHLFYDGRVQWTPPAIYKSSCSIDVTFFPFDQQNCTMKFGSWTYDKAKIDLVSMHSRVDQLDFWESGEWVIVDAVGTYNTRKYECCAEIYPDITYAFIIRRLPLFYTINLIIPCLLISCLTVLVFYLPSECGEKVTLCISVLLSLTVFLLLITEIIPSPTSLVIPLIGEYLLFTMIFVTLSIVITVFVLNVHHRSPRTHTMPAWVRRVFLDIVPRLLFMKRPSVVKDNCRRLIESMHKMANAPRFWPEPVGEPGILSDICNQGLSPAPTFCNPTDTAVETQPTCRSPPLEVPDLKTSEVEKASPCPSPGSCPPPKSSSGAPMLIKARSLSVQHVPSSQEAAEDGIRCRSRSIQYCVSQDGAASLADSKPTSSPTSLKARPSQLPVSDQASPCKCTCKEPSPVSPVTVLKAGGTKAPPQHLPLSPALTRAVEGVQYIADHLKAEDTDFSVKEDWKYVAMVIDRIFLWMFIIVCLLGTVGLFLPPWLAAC
T1 sequence (P12390 25-500): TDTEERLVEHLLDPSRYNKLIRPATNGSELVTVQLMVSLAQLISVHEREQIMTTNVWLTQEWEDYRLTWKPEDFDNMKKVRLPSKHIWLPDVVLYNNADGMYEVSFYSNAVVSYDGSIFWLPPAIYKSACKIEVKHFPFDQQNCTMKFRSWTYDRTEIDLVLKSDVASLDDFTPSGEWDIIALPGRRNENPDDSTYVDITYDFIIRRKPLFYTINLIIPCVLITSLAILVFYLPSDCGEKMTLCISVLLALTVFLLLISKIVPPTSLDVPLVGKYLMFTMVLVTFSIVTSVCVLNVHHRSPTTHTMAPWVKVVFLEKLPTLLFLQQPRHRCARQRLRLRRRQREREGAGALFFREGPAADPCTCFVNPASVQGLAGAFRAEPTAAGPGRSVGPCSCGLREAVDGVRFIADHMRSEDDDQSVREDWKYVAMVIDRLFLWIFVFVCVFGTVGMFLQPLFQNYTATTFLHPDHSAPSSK
Procedure: (§1) Rats (female, Sprague-Dawley), weighing 150-250 g, were maintained on a 12 h light/dark cycle and were allowed free access to water and food supplied by PMI Nutrition International, Inc. Animals were anesthetized with 70% CO2, then decapitated. Brains were removed and placed on an ice-cold platform. The cerebral cortex was removed and placed in 20 volumes (weight:volume) of ice-cold preparative buffer (137 mM NaCl, 10.7 mM KCl, 5.8 mM KH2PO4, 8 mM Na2HPO4, 20 mM HEPES (free acid), 5 mM iodoacetamide, 1.6 mM EDTA, pH 7.4); PMSF, dissolved in methanol to a final concentration of 100 μM, was added and the suspension was homogenized by Polytron. The homogenate was centrifuged at 18,000×g for 20 min at 4° C. and the resulting pellet was re-suspended in 20 volumes of ice-cold water. After 60 min incubation on ice, a new pellet was collected by centrifugation at 18,000×g for 20 min at 4° C. The final pellet was re-suspended in 10 volumes of buffer and stored at −20° C. On the day of the assay, tissue was thawed, centrifuged at 18,000×g for 20 min, and then re-suspended in ice-cold PBS (Dulbecco's Phosphate Buffered Saline, 138 mM NaCl, 2.67 mM KCl, 1.47 mM KH2PO4, 8.1 mM Na2HPO4, 0.9 mM CaCl2, 0.5 mM MgCl2, Invitrogen/Gibco, pH 7.4) to a final concentration of approximately 4 mg protein/mL. Protein was determined by the method of Lowry et al., J. Biol. Chem. 193: 265 (1951), using bovine serum albumin as the standard.
The binding of [^3H]nicotine was measured using a modification of the methods of Romano et al., Science 210: 647 (1980) and Marks et al., Mol. Pharmacol. 30: 427 (1986). The [^3H]nicotine (Specific Activity=81.5 Ci/mmol) was obtained from NEN Research Products. The binding of [^3H]nicotine was measured using a 3 h incubation at 4° C. Incubations were conducted in 48-well micro-titre plates and contained about 400 μg of protein per well in a final incubation volume of 300 μL. The incubation buffer was PBS and the final concentration of [^3H]nicotine was 5 nM. The binding reaction was terminated by filtration of the protein containing bound ligand onto glass fiber filters (GF/B, Brandel) using a Brandel Tissue Harvester at 4° C. Filters were soaked in de-ionized water containing 0.33% polyethyleneimine to reduce non-specific binding. Each filter was washed with ice-cold buffer (3×1 mL). Non-specific binding was determined by inclusion of 10 μM non-radioactive L-nicotine (Acros Organics) in selected wells.
The inhibition of [^3H]nicotine binding by test compounds was determined by including seven different concentrations of the test compound in selected wells. Each concentration was replicated in triplicate. IC50 values were estimated as the concentration of compound that inhibited 50 percent of specific [^3H]nicotine binding. Inhibition constants (Ki values), reported in nM, were calculated from the IC50 values using the method of Cheng et al., Biochem. Pharmacol. 22: 3099 (1973).

[2] = biological target: Human α4β2 (Homo sapiens, UniProt P17787+P43681); experiment: Binding at human α4β2 subtype (Table 1)
Sequence of Human α4β2 (P43681 29-627 limits assumed): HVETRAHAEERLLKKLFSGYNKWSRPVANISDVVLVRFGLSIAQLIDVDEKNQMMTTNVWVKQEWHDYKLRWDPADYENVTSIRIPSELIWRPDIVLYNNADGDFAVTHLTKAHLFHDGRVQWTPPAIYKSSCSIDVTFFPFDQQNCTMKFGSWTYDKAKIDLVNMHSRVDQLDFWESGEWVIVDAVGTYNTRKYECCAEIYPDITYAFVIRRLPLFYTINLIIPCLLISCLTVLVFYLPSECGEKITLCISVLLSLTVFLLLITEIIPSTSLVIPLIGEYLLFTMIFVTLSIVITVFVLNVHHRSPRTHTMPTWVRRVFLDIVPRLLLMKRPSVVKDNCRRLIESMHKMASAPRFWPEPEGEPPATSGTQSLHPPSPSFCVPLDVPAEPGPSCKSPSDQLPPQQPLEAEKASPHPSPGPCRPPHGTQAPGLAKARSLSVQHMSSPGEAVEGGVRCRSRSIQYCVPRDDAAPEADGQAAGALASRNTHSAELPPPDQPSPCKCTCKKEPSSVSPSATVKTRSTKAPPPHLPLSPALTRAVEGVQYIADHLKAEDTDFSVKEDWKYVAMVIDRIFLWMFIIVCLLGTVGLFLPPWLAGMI
Sequence of Human α4β2 (P17787 26-502): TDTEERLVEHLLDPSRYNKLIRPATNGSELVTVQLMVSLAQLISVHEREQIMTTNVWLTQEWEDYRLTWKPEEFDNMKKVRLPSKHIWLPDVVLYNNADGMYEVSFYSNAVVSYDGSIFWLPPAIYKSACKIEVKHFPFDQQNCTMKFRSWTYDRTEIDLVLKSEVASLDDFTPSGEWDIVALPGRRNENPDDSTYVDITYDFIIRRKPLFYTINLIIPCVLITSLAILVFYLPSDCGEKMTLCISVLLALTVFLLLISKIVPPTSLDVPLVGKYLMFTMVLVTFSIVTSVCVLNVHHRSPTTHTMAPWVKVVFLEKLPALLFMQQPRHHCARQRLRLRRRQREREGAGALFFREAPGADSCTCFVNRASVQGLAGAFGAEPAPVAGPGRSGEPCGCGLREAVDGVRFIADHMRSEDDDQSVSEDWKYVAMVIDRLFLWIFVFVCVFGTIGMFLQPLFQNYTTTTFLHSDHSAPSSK

[3] = biological target: T2, α7 nAChR Subtype (Rattus norvegicus, UniProt Q05941); experiment: Radioligand binding ([3H]MLA) at α7 nAChR subtype, rat hippocampus membranes; HTS at 5 μM; conditions: 5 μM compound, 5 nM 3H-MLA; read-out: α7 high throughput screening (HTS) binding
T2 construct: The hippocampus was removed and placed in 10 volumes (weight:volume) of ice-cold preparative buffer; from tissue; host or cells: rat hippocampus membranes
T2 sequence (Q05941 23-502): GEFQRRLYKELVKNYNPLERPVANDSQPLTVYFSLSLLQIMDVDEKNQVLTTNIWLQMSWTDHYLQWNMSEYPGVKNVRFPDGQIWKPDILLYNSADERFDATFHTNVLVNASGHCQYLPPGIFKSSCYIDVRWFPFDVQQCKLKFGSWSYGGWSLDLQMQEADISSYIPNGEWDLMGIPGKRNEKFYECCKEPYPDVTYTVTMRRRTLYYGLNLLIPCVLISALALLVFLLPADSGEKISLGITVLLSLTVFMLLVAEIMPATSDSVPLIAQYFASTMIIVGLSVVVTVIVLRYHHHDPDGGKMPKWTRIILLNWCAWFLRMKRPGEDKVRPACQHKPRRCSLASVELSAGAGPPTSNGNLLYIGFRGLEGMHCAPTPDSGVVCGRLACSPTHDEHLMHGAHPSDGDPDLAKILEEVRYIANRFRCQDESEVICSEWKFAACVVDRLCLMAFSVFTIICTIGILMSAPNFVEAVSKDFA
Procedure: as §1, with “platform. The hippocampus was removed” for “platform. The cerebral cortex was removed”, “placed in 10 volumes (weight:volume)” for “placed in 20 volumes (weight:volume)”, “and the tissue suspension was” for “and the suspension was”, “re-suspended in 10 volumes of” for “re-suspended in 20 volumes of”, “of approximately 2 mg protein/mL.” for “of approximately 4 mg protein/mL.”
The binding of [^3H]MLA was measured using a modification of the methods of Davies et al., Neuropharmacol. 38: 679 (1999). [^3H]MLA (Specific Activity=25-35 Ci/mmol) was obtained from Tocris. The binding of [^3H]MLA was determined using a 2 h incubation at 21° C. Incubations were conducted in 48-well micro-titre plates and contained about 200 μg of protein per well in a final incubation volume of 300 μL. The incubation buffer was PBS and the final concentration of [^3H]MLA was 5 nM. The binding reaction was terminated by filtration of the protein containing bound ligand onto glass fiber filters (GF/B, Brandel) using a Brandel Tissue Harvester at room temperature. Filters were soaked in de-ionized water containing 0.33% polyethyleneimine to reduce non-specific binding. Each filter was washed with PBS (3×1 mL) at room temperature. Non-specific binding was determined by inclusion of 50 μM non-radioactive MLA in selected wells.
[…] Each concentration was replicated in triplicate. […] […] Pharmacol. 22: 3099-3108 (1973).

[4] = NOR (novel object recognition) task in rats; assay type: in vivo, rat; conditions: treated orally, 0.03 mg/kg
Procedure: FIG. 1 is a chart showing the results of a study on object recognition in rats treated orally with (1S,5S)-3-(5-bromofuran-2-ylcarbonyl)-3,6-diazabicyclo[3.2.1]octane. The results are shown as a function of recognition index (%) versus dose (mg/kg).
Certain exemplified compounds were assessed in the NOR (novel object recognition) task. Thus, (1S,5S)-3-(5-bromofuran-2-ylcarbonyl)-3,6-diazabicyclo[3.2.1]octane (FIG. 1) was active in NOR in rats, at 0.03 mg/kg. This provides evidence of the efficacy (and potency) of the compounds of the present invention in treating cognitive deficits, attentional disorders and dementias, and the potential of these compounds for human therapy.

[5] = [3H]nicotine 5 nM, rat cortex, read-out: Rat α4β2 Ki

Structure (SMILES)	pKi [1, 5]	pKi ([2]; read-out: Human α4β2 Ki)	inhibition at 5 µM [3] [%]	pKi [2]	activity in NOR (recognition index) [4]	pKi [1]
COc1cc(C(=O)N2CC3CNCC2C3)on1 (stereo not shown)	6.71	6.51	≤ 50	–	–	–
COc1cc(C(=O)N2C[C@@H]3CN[C@@H](C3)C2)on1	6.44	–	≤ 50	7.02	–	–
Cc1cc(C(=O)N2C[C@@H]3CN[C@@H](C3)C2)no1	6.07	6.30	≤ 50	–	–	–
Cc1cc(C(=O)N2C[C@@H]3CN[C@@H](C3)C2)on1	6.98	–	≤ 50	7.12	–	–
CC(C)c1cc(C(=O)N2C[C@@H]3CN[C@@H](C3)C2)on1	6.33	6.14	≤ 50	–	–	–
O=C(c1ccco1)N1CCC2CNCC21 (stereo not shown)	6.22	6.07	≤ 50	–	–	–
O=C(c1ccco1)N1CC2CCNC2C1 (stereo not shown)	6.08	6.10	≤ 50	–	–	–
Cc1nocc1C(=O)N1CC2CCNCC2C1 (stereo not shown)	6.05	6.05	≤ 50	–	–	–
Cc1ncoc1C(=O)N1CC2CCNCC2C1 (stereo not shown)	6.02	6.67	≤ 50	–	–	–
Cc1nocc1C(=O)N1CC2CCNC2C1 (stereo not shown)	6.65	6.19	≤ 50	–	–	–
O=C(c1ccc(Br)o1)N1C[C@@H]2CN[C@@H](C2)C1 [(1S,5S)-3-(5-bromofuran-2-ylcarbonyl)-3,6-diazabicyclo[3.2.1]octane]	–	–	–	–	active	–
O=C(c1ccc(Br)o1)N1C[C@@H]2CN[C@@H](C2)C1 [drawing 16]	–	7.37	≤ 50	–	–	7.41
